This is an account of results in ChEMBL document CHEMBL5634173, “Identification of a novel histone H2A mono-ubiquitination-inhibiting cell-active small molecule” (Bioorg Med Chem Lett, 2024).

Calls of active or inactive are those of the source. The rule behind the calls is not given here.

Assay [1] concerns U2OS. Nature of the assay: Antiproliferative activity against human U2OS cells assessed as reduction in cell viability at 30 uM incubated for 72 hrs. The class given is functional, cell-based.
Assay [2] concerns U2OS. The assay can be described thus: Antiproliferative activity against human U2OS cells assessed as reduction in cell viability incubated for 72 hrs. It counts as functional, cell-based.
Assay [3] concerns U2OS. The assay can be described thus: Antiproliferative activity against human U2OS cells assessed as reduction in cell viability at 50 uM incubated for 72 hrs. It counts as functional, cell-based.
The test system of assay [4] is U2OS. The assay can be described thus: Inhibition of histone H2A ubiquitination at K119 residue in human U2OS cells assessed as decrease in H2AK119ub1 level incubated for 1 hr by Western blotting analysis. The class given is cell-based. The note with it: dose 24-96 µM.
Assay [5] has as its system U2OS. Nature of the assay: Antiproliferative activity against human U2OS cells assessed as reduction in cell viability at 30 uM incubated for 72 hrs relative to control. The class given is functional.

In the case of `O=C1C(=Cc2cccc(F)c2)C(=O)c2ccccc21`, the result in the assay with U2OS [1] was inactive. In the case of `O=C1C(=Cc2cccc([N+](=O)[O-])c2)C(=O)c2ccccc21`, the outcome with U2OS [1] was Active. Also, in the assay with U2OS [2], the IC50 came out at 24 µM. For the compound `O=C1C(=Cc2ccc([N+](=O)[O-])cc2[N+](=O)[O-])C(=O)c2ccccc21`, the IC50 with U2OS [2] is 24 µM. Regarding `O=C1C(=Cc2ccc([N+](=O)[O-])cc2)C(=O)c2ccccc21`, in the assay with U2OS [1], the result was Active. In the assay on U2OS [2], the IC50 is 33.5 µM.

In the case of `O=C1C(=Cc2cccnc2)C(=O)c2ccccc21`, the result in the assay on U2OS [3] was Active. In addition, in the assay on U2OS [2], the Activity entry is “Dose-Dependent Effect” and the IC50 is 45.2 µM. On to `O=C1C(=Cc2ccccc2[N+](=O)[O-])C(=O)c2ccccc21`, for which the result in the assay with U2OS [1] was Active. The IC50 in the assay on U2OS [2] was 39.6 µM. Consider `O=C1C(=Cc2ccccc2)C(=O)c2ccccc21`, for which, in the assay with U2OS [1], the result was inactive. For `N#Cc1cccc(C=C2C(=O)c3ccccc3C2=O)c1`, the IC50 in the assay with U2OS [2] came to 32.1 µM. Regarding `Cc1cccc(C)c1C=C1C(=O)c2ccccc2C1=O`, the result in the assay on U2OS [1] was inactive. Same read-out and setting: then `COc1ccc(C=C2C(=O)c3ccccc3C2=O)cc1`, with “inactive”. For the compound `O=C1C(=Cc2c([N+](=O)[O-])cccc2[N+](=O)[O-])C(=O)c2ccccc21`, in the assay with U2OS [4], the inhibition result was “Dose-Dependent Effect”. Further, the IC50 with U2OS [2] came out at 5.86 µM. Moreover, in the assay on U2OS [5], the Activity amounted to 100%. With `CCc1c(-c2cccc3[nH]ccc23)[nH]c(C(=O)O)c1-c1ccccc1Cl`, the result with U2OS [3] was inactive. In the case of `Cc1cccc(C=C2C(=O)c3ccccc3C2=O)c1`, in the assay on U2OS [1], the outcome was inactive. On the same count and under the same terms, as for `COc1ccccc1C=C1C(=O)c2ccccc2C1=O`, the entry is “inactive”. Still for that read-out and setting: then `COc1cccc(C=C2C(=O)c3ccccc3C2=O)c1`, with “inactive”; and `Cc1ccc(C=C2C(=O)c3ccccc3C2=O)cc1`, with “inactive”; and `Cc1ccccc1C=C1C(=O)c2ccccc2C1=O`, with “inactive”.
